The results in this text go back to publication PMC12668308, “A Novel Antimalarial Agent that Inhibits Protein Synthesis in Plasmodium falciparum” (Angewandte Chemie (International Ed. in English), 2025).

Data set [1] concerns NF54/iGP1_RE9H^ulg8 stage V gametocytes. In words: Dose-response assay on gametocytes, MitoTracker-based readout. It is filed as cell-based, Plasmodium falciparum. The text has this:
Compound 31 was also found to be active against the sexual stage of P. falciparum using the MitoTracker‐based readout. This readout is based on quantifying MitoTracker‐based gametocyte viability as recently described.^[ [7] ^] Briefly, high content imaging of MitoTracker‐ and Hoechst‐stained cells and automated image analysis using the MetaXpress software was used to determine the number of viable gametocytes based on mitochondrial activity and cellular shape.
Sexual commitment was induced in the NF54/iGP1_RE9H^ulg8 parasite line as described in ^[18,^52]. Synchronous ring stage cultures at 2-3% parasitemia (8-16 hpi) were grown for 48 hours in a culture medium lacking D-(+)-glucosamine hydrochloride (GlcN) and containing 1.25 µM Shield-1 to induce GDV1-GFP-DD expression. The induction medium was replaced with standard culture medium containing 50 mM N-acetyl-glucosamine (GlcNAc) for six consecutive days.) to selectively kill asexual parasites.^[53^,54^] Gametocytes were maintained in standard culture medium from day 7 onwards. During the first seven days of gametocyte development, the culture medium was exchanged daily and every second day subsequently. Visual inspection of Hemacolor-stained thin blood smears with a 100x immersion oil objective (total magnification = 1000x) was performed to assess gametocytemia.
Dose response assays were performed in biological triplicates, each in technical duplicate, as described in ^[18, ^55]. Synchronous NF54/iGP1_RE9H^ulg8 gametocyte cultures were resuspended at ~2% gametocytemia in an assay medium at 3% haematocrit. […] MitoTracker-based gametocyte viability was quantified using a modified version of published protocols.^[56^,57^] […] After imaging two technical replicates, the results were averaged and normalized to the plateau of sub-lethal compound concentrations using the “first mean in each data set” function and IC50 values were calculated using nonlinear, four parameter (variable slope) curve fitting in GraphPad Prism (version 8.3.0).

Data set [2] is described as follows: Metabolic stability in liver S9 fractions. It is filed as in vitro ADME. The conditions noted are these: pooled mouse liver S9 fraction; 1 μM compound, 1 mg/mL pooled mouse liver S9, 37 °C; read-out: t1/2 Mouse Liver S9. On the procedure: To evaluate phase I and phase II metabolic stability, the compound (1 μM) was incubated at 37 °C for 240 min with 1 mg/mL pooled mouse liver S9 fraction (Xenotech, Kansas City, USA), 2 mM NADPH, 1 mM UDPGA, 10 mM MgCl2, 5 mM GSH and 0.1 mM PAPS. Metabolic stability of reference compounds: testosterone, verapamil and ketoconazole was determined in parallel to confirm the enzymatic activity of mouse S9 fractions. At defined time points, the incubation was stopped by precipitation of aliquots of S9 enzymes with 2 volumes of cold acetonitrile containing internal standard (150 nM diphenhydramine or 15 nM for Altis Plus measurements). Samples were kept on ice until the end of the incubation, after which precipitated protein was removed by centrifugation (15 min, 4 °C, 4,000 g).

Where two headings read alike, the source gives them in different places. Bounds are passed on as bounds.

For the molecule `CN1CCN(Cc2ccc(O)c(NC(=O)c3cccc(Oc4cc(C(F)(F)F)ccn4)c3)c2)CC1` [Compound 31, N-(2-hydroxy-5-((4-methylpiperazin-1-yl)methyl)phenyl)-3-((4-(trifluoromethyl)pyridin-2-yl)oxy)benzamide], the half-maximal inhibitory concentration (IC50) in data set [1] (Plasmodium falciparum, NF54, 72 h, read-out: IC50 mature (stage V) gametocytes, 72 h exposure, MitoTracker readout, N = 3) is 354 nM; in data set [1] (read-out: IC50 mature (stage V) gametocytes, 72 h exposure, MitoTracker readout, N = 3), less than 500 nM. Moreover, the “fold reduction in activity against the sexual stages compared to the asexual stage” value in data set [1] (stage V gametocytes vs NF54 asexual) turned out to be 91 fold. The half-life at 1 µM in data set [2] is 42.7 ± 3.7 min.

For orientation: IC50 means the midpoint of a concentration-inhibition curve.
